This note sets out measurements from patent US20230233538A1, “COMPOSITION FOR TREATING CORONAVIRUS DISEASE-19, COMPRISING PHENANTHROINDOLIZIDINE AND PHENANTHROQUI[…] DERIVATIVES, OPTICAL ISOMER THEREOF, OR PHARMACEUTICALLY ACCEPTABLE SALTS THEREOF AS ACTIVE INGREDIENT” (priority 2020, published 2023).

Molecules are shown by their SMILES. Like-named read-outs stand apart in the source and are kept apart here.

Data set [1] can be described thus: in vitro. To be noted: African green monkey, Cytotoxic Concentration 50 (CC50).
The subject of data set [2] is SARS-CoV-2. The experiment in a line: microbe, parasite or virus in culture. Type of data set: cell-based. The conditions noted are these: for EC50: read-out: Effective Concentration 50 (EC50), 50% virus proliferation inhibitory concentration.
Data set [3] has as its system Vero CCL-81 cells.
Setting [4] is: Severe acute respiratory syndrome coronavirus 2, 48 h.

With `COc1cc2c3c(c4ccc(NS(C)(=O)=O)cc4c2cc1OC)CN1CCC[C@@H]1C3` [Compound 1, (R)-N-(2,3-dimethoxy-9,11,12,13,13a,14-hexahydrodibenzo-[f,h]pyrrolo[1,2-b]isoquinolin-6-yl)methanesulfonamide], in data set [1], the cytotoxic concentration (CC50) was 1.82 µM. The EC50 in data set [2] (setting [4]) was 0.035 µM. For the same molecule, in data set [3], the “Selectivity Index (SI)” value is 52.
Molecule `COc1cc2c3c(c4ccc(NS(C)(=O)=O)cc4c2cc1OC)CN1CCCC[C@@H]1C3` [Compound 2, (R)-N-(2,3-dimethoxy-11,12,13,14,14a,15-hexahydro-9H-dibenzo[f,h]pirido[1,2-b]isoquinolin-6-yl)methanesulfonamide] registered a cytotoxic concentration (CC50) in data set [1] of 0.126 µM. Besides, in data set [2], the “fold greater effect (virus proliferation inhibitory ability) compared to Remdesivir” value was ~1,700 fold. In data set [2] (setting [4]), the EC50 was 0.013 µM. In data set [3], the “Selectivity Index (SI)” value was 10.
The corresponding values for `COC(=O)Nc1ccc2c3c(c4cc(OC)c(OC)cc4c2c1)CC1CCCCN1C3` (centres unmarked) [Compound 3, methyl(2,3-dimethoxy-11,12,13,14,14a,15-hexahydro-9H-dibenzo[f,h]pirido[1,2-b]isoquinolin-6-yl)carbamate] are 0.317 µM, ~1,300 fold, 0.017 µM and 19.
In the case of `CCC(CC)COC(=O)[C@H](C)N[P@](=O)(OC[C@H]1O[C@@](C#N)(c2ccc3c(N)ncnn23)[C@H](O)[C@@H]1O)Oc1ccccc1` [Remdesivir, reference compound], the CC50 in data set [1] and in data set [3] (African green monkey) was 172 µM each time. The EC50 in data set [2] (setting [4]) worked out at 22 µM; in data set [2], 22.1 µM. Further, in data set [3], the “Selectivity Index (SI)” value is 7.8.
In turn, `COc1ccc2c3c(c4cc(OC)c(OC)cc4c2c1)C[C@H]1CCCN1C3` [antofine, reference compound] displayed a CC50 in data set [1] of 0.872 µM. In addition, the EC50 in data set [2] was 0.037 µM. For the same molecule, the “Selectivity Index (SI)” value in data set [3] is listed as 24.
For `COc1ccc2c3c(c4cc(OC)c(OC)cc4c2c1)C[C@H]1CCCCN1C3` [cryptopleurin, reference compound], the EC50 in data set [2] came out at 0.011 µM.
